Results as given in paper PMC8703823, “The Role of TRPA1 Channels in the Central Processing of Odours Contributing to the Behavioural Responses of Mice” (Pharmaceuticals, 2021).

Columns and labels:
[1] = molecular target: T1, mTRPA1 (Mus musculus, UniProt Q8BLA8); test: Fluo-4 AM calcium influx, flow cytometry, CHO cells; type: cell-based
T1 construct: gene Trpa1; stably overexpressed in CHO cells

[2] = molecular target: T2, hTRPA1 (Homo sapiens, UniProt O75762); test: as above; type: cell-based
T2 construct: gene TRPA1; stably overexpressed in CHO cells
T2 sequence (O75762 whole entry): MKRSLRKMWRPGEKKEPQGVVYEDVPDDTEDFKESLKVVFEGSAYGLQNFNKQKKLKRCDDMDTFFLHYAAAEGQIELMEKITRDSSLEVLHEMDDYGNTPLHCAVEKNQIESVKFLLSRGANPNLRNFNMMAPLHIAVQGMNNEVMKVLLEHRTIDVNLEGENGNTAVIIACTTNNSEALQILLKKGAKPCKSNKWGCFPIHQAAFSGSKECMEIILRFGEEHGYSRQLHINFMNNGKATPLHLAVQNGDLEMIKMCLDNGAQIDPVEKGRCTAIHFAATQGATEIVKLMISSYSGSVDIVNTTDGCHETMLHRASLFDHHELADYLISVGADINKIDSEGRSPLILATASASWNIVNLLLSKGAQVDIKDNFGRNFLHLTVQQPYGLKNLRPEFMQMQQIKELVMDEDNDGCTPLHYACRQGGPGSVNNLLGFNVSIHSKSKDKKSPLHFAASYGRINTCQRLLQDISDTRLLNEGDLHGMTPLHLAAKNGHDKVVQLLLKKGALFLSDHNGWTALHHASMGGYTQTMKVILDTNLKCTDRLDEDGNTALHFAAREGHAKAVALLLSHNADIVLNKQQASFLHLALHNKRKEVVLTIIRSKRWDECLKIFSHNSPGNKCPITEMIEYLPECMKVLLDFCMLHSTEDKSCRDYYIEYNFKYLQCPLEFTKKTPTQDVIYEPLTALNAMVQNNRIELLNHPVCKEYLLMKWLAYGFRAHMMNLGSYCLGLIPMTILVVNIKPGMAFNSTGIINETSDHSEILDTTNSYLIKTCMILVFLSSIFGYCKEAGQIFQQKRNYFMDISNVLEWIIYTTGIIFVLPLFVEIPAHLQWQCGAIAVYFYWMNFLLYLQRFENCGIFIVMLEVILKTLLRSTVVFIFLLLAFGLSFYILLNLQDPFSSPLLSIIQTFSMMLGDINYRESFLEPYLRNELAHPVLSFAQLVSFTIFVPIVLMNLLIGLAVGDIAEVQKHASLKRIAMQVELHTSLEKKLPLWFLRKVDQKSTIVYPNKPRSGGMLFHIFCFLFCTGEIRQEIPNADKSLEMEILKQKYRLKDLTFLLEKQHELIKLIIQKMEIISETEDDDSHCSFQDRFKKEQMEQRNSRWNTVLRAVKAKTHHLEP

T1 sequence (Q8BLA8 whole entry): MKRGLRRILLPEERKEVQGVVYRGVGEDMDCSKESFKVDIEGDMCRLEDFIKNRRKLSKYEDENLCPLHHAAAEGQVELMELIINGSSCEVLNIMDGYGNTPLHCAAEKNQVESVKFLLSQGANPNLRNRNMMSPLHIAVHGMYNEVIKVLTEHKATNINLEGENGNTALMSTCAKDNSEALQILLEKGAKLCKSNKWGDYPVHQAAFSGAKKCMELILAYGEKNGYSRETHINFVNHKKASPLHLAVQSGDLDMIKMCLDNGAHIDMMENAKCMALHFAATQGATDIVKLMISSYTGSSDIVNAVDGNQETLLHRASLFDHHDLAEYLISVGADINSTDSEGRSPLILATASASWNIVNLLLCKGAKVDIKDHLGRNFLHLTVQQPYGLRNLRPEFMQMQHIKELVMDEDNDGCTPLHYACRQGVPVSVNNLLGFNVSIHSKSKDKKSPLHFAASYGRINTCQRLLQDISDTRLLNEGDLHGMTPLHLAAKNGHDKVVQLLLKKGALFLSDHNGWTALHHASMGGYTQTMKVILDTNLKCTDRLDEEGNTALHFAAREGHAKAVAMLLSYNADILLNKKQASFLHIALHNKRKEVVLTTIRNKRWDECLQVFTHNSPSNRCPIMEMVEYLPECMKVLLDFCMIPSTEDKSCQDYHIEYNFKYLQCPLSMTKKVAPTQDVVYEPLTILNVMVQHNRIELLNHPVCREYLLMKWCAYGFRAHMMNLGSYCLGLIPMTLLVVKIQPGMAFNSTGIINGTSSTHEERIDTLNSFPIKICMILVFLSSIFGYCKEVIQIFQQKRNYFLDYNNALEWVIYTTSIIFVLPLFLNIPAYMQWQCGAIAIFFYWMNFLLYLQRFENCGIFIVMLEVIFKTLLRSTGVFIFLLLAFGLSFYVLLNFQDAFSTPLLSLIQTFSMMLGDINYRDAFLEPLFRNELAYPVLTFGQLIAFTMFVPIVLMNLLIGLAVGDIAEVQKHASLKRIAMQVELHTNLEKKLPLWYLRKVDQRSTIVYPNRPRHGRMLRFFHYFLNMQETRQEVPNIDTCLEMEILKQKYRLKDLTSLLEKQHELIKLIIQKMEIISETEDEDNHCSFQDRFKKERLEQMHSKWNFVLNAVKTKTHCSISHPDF

`CC1=NCCS1` [2-MT, 2-methyl-2-thiazoline] gave an EC50 [1] of 4.42 mM and an EC50 [2] of 5.01 mM.
